Values of other authors, collected in US10849879B2, “Localized modulation of tissues and cells to enhance therapeutic effects including renal denervation” (Mercator MedSystems, Inc., priority 2011, dated 2020).
Values joined by “and” are separate entries in the source; they are usually repeats but may differ in a detail not shown here. Identical values can stand only once.

Test system: axon

## (2-(Hexahydro-1(2H)-azocinyl)ethyl)guanidine sulfate (1:1) [guanethidine monosulfate]
  concentrations producing axon retraction in vitro: ≥ 0.2 mM and ≥ 60 μg/mL
